Data on five molecules can be found in BindingDB's records for doi:10.1111/cbdd.12863 (Guangzhou Institutes of Biomedicine and Health, Chinese …, 2017).

The structures appear in SMILES notation.

For assay [1], the target named is T1, Discoidin domain-containing receptor 2 (Homo sapiens, UniProt Q16832).
T1 sequence (Q16832 whole entry): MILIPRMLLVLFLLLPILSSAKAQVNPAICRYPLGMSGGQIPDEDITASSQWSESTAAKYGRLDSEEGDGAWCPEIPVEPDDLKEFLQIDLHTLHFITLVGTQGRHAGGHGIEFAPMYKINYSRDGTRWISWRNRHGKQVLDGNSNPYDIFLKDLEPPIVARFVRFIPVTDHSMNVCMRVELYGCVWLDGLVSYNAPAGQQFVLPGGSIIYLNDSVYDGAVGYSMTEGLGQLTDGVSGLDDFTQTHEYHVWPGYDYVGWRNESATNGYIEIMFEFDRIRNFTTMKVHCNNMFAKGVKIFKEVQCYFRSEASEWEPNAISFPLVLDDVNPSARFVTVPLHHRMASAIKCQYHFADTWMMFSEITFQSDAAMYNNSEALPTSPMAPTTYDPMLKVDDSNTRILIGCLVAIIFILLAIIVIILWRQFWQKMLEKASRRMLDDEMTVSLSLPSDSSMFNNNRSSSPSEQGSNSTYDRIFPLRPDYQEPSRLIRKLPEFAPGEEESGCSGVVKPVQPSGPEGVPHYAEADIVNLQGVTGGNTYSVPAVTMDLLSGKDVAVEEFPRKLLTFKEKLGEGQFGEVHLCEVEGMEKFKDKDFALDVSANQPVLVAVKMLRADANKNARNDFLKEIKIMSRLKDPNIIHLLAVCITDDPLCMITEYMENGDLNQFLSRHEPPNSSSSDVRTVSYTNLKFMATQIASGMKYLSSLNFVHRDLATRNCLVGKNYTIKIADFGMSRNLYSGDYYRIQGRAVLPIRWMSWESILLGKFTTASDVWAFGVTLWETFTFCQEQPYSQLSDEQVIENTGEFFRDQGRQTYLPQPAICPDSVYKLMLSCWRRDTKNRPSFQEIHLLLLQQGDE
The experiment in a line: LanthaScreen Eu Kinase Activity Assay. As to conditions: pH 7.5; 25 °C. How it is done:
(§1) The effects of compounds on the kinases DDR1 and DDR2 were assessed by using a LanthaScreen Eu kinase activity assay technology (Invitrogen, Carlsbad, CA, USA). […] Reaction buffer for the kinase reaction consists of 50 mm HEPES pH 7.5, 0.01% BRIJ-35, 10 mm MgCl2, and 1 mm EGTA. The concentration of fluorescein-polyGAT substrate (Invitrogen) in the assay was […] reactions were initiated with the addition of […] in the presence of serial dilutions of compounds. The reactions were allowed to proceed for 1 hour at room temperature before a 10 μL preparation of EDTA (20 mm) and Eu-labeled antibody (4 nm) in TR-FRET dilution buffer was added. The final concentration of antibody in the assay well was 2 nm, and the final concentration of EDTA was 10 mm.
(In general: TR-FRET usually uses a lanthanide donor and a delayed reading to cut background.)

Assay [2] addresses Epithelial discoidin domain-containing receptor 1 (Homo sapiens, UniProt Q08345). Put plainly: LanthaScreen Eu Kinase Activity Assay. As to conditions: pH 7.5; 25 °C. How it is done:
as §1

Chain of Epithelial discoidin domain-containing receptor 1 (Q08345 whole entry, the tested form may be a part): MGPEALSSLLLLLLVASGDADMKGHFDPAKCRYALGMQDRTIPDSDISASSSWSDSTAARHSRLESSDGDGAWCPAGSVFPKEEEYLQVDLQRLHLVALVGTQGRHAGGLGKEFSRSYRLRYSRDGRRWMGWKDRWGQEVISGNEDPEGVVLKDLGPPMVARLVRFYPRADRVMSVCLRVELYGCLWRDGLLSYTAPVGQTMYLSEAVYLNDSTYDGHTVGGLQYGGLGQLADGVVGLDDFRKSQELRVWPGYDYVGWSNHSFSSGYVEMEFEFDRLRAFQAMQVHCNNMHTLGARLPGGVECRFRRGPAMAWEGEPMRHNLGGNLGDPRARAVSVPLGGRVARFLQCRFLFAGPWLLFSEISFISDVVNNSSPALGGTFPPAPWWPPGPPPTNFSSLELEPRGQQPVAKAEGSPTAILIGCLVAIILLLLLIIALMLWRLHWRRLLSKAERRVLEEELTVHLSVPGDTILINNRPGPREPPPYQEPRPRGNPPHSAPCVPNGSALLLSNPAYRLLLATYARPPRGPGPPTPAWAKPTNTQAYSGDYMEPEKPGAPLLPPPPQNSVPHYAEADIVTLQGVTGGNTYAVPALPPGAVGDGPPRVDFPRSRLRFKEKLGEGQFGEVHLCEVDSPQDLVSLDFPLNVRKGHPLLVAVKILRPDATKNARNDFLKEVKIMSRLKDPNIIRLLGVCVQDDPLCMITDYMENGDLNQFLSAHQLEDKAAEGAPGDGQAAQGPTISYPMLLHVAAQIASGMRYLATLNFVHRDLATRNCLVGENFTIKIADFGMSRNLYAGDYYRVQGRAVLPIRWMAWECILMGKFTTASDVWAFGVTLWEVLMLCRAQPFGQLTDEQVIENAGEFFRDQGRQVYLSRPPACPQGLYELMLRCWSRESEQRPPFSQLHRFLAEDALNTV

On to `Cc1nc(Nc2ncc(C(=O)Nc3c(C)cccc3Cl)s2)cc(NC2CCN(S(C)(=O)=O)C2)n1` (stereo not given) [N-(2-chloro-6-methylphenyl)-2-((2-methyl-6-((1-(methylsulfonyl)pyrrolidin-3-yl)amino)-pyrimidin-4-yl)amino)thiazole-5-carboxamide (5i)], for which the results for the 50% inhibitory concentration (IC50) in assay [1] and in assay [2] were 38.3 nM and 11.7 nM, respectively.

On to `CCC(=O)N1CCC(Nc2cc(Nc3ncc(C(=O)Nc4c(C)cccc4Cl)s3)nc(C)n2)C1` (stereo not given) [N-(2-chloro-6-methylphenyl)-2-((2-methyl-6-((1-propionylpyrrolidin-3-yl)amino)pyrimidin-4-yl)amino)thiazole-5-carboxamide (5l)], for which the IC50 – broadly, the concentration needed to halve the response being measured – in assay [1] was 23.9 nM; in assay [2], 17.9 nM.

As to `CCS(=O)(=O)N1CCC(Nc2cc(Nc3ncc(C(=O)Nc4c(C)cccc4Cl)s3)nc(C)n2)C1` (stereo not given) [N-(2-chloro-6-methylphenyl)-2-((6-((1-(ethylsulfonyl)pyrrolidin-3-yl)amino)-2-methylpyrimidin-4-yl)amino)thiazole-5-carboxamide (5j)], the figures for the IC50 in assay [1] and in assay [2] were 156 nM and 48.5 nM, respectively.

As to `Cc1nc(Nc2ncc(C(=O)Nc3c(C)cccc3Cl)s2)cc(C2CCN(C(=O)Oc3ccccc3)C2)n1` (stereo not given) [Phenyl 3-(6-((5-((2-chloro-6-methylphenyl)carbamoyl)thiazol-2-yl)amino)-2-methylpyrimidin-4-yl)pyrrolidine-1-carboxylate (5g)], the IC50 in assay [1] is 59.9 nM; in assay [2], 7.51 nM.

Consider `Cc1nc(Nc2ncc(C(=O)Nc3c(C)cccc3Cl)s2)cc(N2CCN(C(=O)Oc3ccccc3)CC2)n1` [Phenyl 4-(6-((5-((2-chloro-6-methylphenyl)carbamoyl)thiazol-2-yl)amino)-2-methylpyrimidin-4-yl)-piperazine-1-carboxylate (3g)], for which the IC50 worked out at 21.3 nM in assay [1] and 7.14 nM in assay [2].
